These are literature values, as cited in patent publication US10279004B2, “Methods and compositions for enhancing or maintaining fertility” (Quality IP Holdings, LLC, priority 2016, dated 2019).

One data set concerns hGH. The settings on record: for effect on hGH: other amino acids, literature.
The conditions of data set [1]: subcutaneous injection of 0.06 IU in hGH deficient subjects.

In the case of `NCCCC[C@H](N)C(=O)O` [lysine], in the data set with hGH, the “effect on hGH” value is reported as “marked increases in hGH”.
Regarding `N[C@@H](Cc1c[nH]cn1)C(=O)O` [histidine], the “effect on hGH” value in the data set on hGH is reported as “marked increases in hGH”.
On to `N=C(N)NCCC[C@H](N)C(=O)O` [arginine], for which the “elevation of serum hGH levels” value in the data set on hGH (30 g in males) was 8.6 fold. Also, the “increase in hGH levels” value in the data set on hGH (intravenous infusion of 183 mg/kg body weight in females) is above 20 fold.
In the case of `NCCC[C@H](N)C(=O)O` [ornithine], the “effect on hGH” value in the data set on hGH is reported as “marked increases in hGH”.
For the molecule “hGH: human growth hormone, available in injectable forms”, the “probability of clinical pregnancy” value (administration during ovarian stimulation phase of IVF cycles) is recorded as “increase the probability of clinical pregnancy”. The “body composition in hGH-deficient adults” value (within months of hGH treatment) is “gains in lean body mass, skin thickness, and muscle mass are observed”. The “mean level of hGH reached” value in data set [1] is 0.4 ng/mL.
On to `N[C@@H](Cc1ccccc1)C(=O)O` [phenylalanine], for which the “effect on hGH” value in the data set on hGH was “marked increases in hGH”.
Turning to `CSCC[C@H](N)C(=O)O` [methionine], in the data set with hGH, the “effect on hGH” value is listed as “marked increases in hGH”.
